Measurements taken from patent publication US20220323406A1, “METHODS AND COMPOSITIONS FOR DIFFERENTIATING STEM CELLS” (Massachusetts Institute of Technology, priority 2019, published 2022).

Key:
[1] = tested on: ENR+CD organoids (ISC to Paneth cell differentiation); experiment: Primary screen: basal (non-stimulated) lysozyme secretion LYZ.NS, 2.5-D 384-well ENR+CD organoid differentiation; type: cell-based, mouse
From the text: (§1) High-throughput screening.

[2] = tested on: ENR+CD organoids (ISC to Paneth cell differentiation); experiment: Primary screen: CCh-stimulated lysozyme secretion LYZ.S, 2.5-D 384-well ENR+CD organoid differentiation; type: cell-based, mouse; settings: primary screen
From the text: as §1

ENR+CD organoids = experiment: Primary screen: ATP (CellTiter-Glo 3D, CTG) cell number/viability, 2.5-D 384-well ENR+CD organoids;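 further: compounds given at plating and again on day 3 over a 6-day differentiation from ENR+CV stem-cell-enriched precursors, ATP measured on day 6, plate median as control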
[3] = primary screen, standard z score, dose 0.08 uM
[4] = primary screen, standard z score, dose 0.40 uM
[5] = primary screen, standard z score, dose 2.00 uM
[6] = primary screen, standard z score, dose 10.00 uM
[7] = primary screen, dose 0.08 uM, FC relative to plate median
[8] = primary screen, dose 0.08 uM, standard z score
[9] = primary screen, dose 0.40 uM, FC relative to plate median
[10] = primary screen, dose 0.40 uM, standard z score
[11] = primary screen, dose 2.00 uM, FC relative to plate median
[12] = primary screen, dose 2.00 uM, standard z score
[13] = primary screen, dose 10.00 uM, FC relative to plate median
[14] = primary screen, dose 10.00 uM, standard z score

COc1ccc(COc2ccc(Cc3cnc(N)nc3N)cc2OC)cc1 [GW2580]
Dose.FC.LYZ.NS (log2 fold change) ([1]; primary screen, dose 0.08 uM): 0.006 | Z.LYZ.NS (standard z score) ([1]; primary screen, dose 0.08 uM): 0.056 | Dose.FC.LYZ.NS (log2 fold change) ([1]; primary screen, dose 0.40 uM): 0.014 | Z.LYZ.NS (standard z score) ([1]; primary screen, dose 0.40 uM): 0.118 | Dose.FC.LYZ.NS (log2 fold change) ([1]; primary screen, dose 2.00 uM): −0.060 | Z.LYZ.NS (standard z score) ([1]; primary screen, dose 2.00 uM): −0.525 | Dose.FC.LYZ.NS (log2 fold change) ([1]; primary screen, dose 10.00 uM): −0.018 | Z.LYZ.NS (standard z score) ([1]; primary screen, dose 10.00 uM): −0.158 | Dose.FC.LYZ.S (log2 fold change) ([2]; dose 0.08 uM): −0.013 | Dose.FC.LYZ.S (log2 fold change) ([2]; dose 0.40 uM): 0.020 | Dose.FC.LYZ.S (log2 fold change) ([2]; dose 2.00 uM): −0.060 | Dose.FC.LYZ.S (log2 fold change) ([2]; dose 10.00 uM): −0.026 | Dose.FC.CTG (log2 fold change) (ENR+CD organoids; primary screen, dose 0.08 uM): −0.042 | Z.CTG (standard z score) (ENR+CD organoids; primary screen, dose 0.08 uM): −0.101 | Dose.FC.CTG (log2 fold change) (ENR+CD organoids; primary screen, dose 0.40 uM): −0.284 | Z.CTG (standard z score) (ENR+CD organoids; primary screen, dose 0.40 uM): −0.678 | Dose.FC.CTG (log2 fold change) (ENR+CD organoids; primary screen, dose 2.00 uM): 0.029 | Z.CTG (standard z score) (ENR+CD organoids; primary screen, dose 2.00 uM): 0.068 | Dose.FC.CTG (log2 fold change) (ENR+CD organoids; primary screen, dose 10.00 uM): −0.038 | Z.CTG (standard z score) (ENR+CD organoids; primary screen, dose 10.00 uM): −0.091

C=CC(=O)Nc1cccc(Nc2nc(Nc3ccc(Oc4ccnc(C(=O)NC)c4)cc3)ncc2F)c1 [CNX-774]
Dose.FC.LYZ.NS ([1]; primary screen, dose 0.08 uM): 0.075 log2 fold change | Dose.FC.LYZ.NS ([1]; primary screen, dose 0.40 uM): −0.008 log2 fold change | Dose.FC.LYZ.NS ([1]; primary screen, dose 2.00 uM): 0.158 log2 fold change | Dose.FC.LYZ.NS ([1]; primary screen, dose 10.00 uM): −0.043 log2 fold change | Z.LYZ.NS [1, 3]: 0.655 | Z.LYZ.NS [1, 4]: −0.067 | Z.LYZ.NS [1, 5]: 1.378 | Z.LYZ.NS [1, 6]: −0.376 | Dose.FC.LYZ.S ([2]; dose 0.08 uM): 0.014 log2 fold change | Dose.FC.LYZ.S ([2]; dose 0.40 uM): −0.027 log2 fold change | Dose.FC.LYZ.S ([2]; dose 2.00 uM): 0.082 log2 fold change | Dose.FC.LYZ.S ([2]; dose 10.00 uM): −0.089 log2 fold change | Dose.FC.CTG (ENR+CD organoids; primary screen, dose 0.08 uM): 0.259 log2 fold change | Dose.FC.CTG (ENR+CD organoids; primary screen, dose 0.40 uM): 0.177 log2 fold change | Dose.FC.CTG (ENR+CD organoids; primary screen, dose 2.00 uM): −0.109 log2 fold change | Dose.FC.CTG (ENR+CD organoids; primary screen, dose 10.00 uM): −0.081 log2 fold change | Z.CTG (ENR+CD organoids; [3]): 0.619 | Z.CTG (ENR+CD organoids; [4]): 0.422 | Z.CTG (ENR+CD organoids; [5]): −0.260 | Z.CTG (ENR+CD organoids; [6]): −0.194

CC(C)(C)c1cnc(CSc2cnc(NC(=O)C3CCNCC3)s2)o1 [SNS-032 (BMS-387032)]
Dose.FC.LYZ.NS [1, 7]: 0.049 log2 fold change | Z.LYZ.NS [1, 8]: 0.428 | Dose.FC.LYZ.NS [1, 9]: −0.143 log2 fold change | Z.LYZ.NS [1, 10]: −1.241 | Dose.FC.LYZ.NS [1, 11]: −0.276 log2 fold change | Z.LYZ.NS [1, 12]: −2.399 | Dose.FC.LYZ.NS [1, 13]: −0.254 log2 fold change | Z.LYZ.NS [1, 14]: −2.214 | Dose.FC.LYZ.S ([2]; dose 0.08 uM, FC relative to plate median): 0.070 log2 fold change | Dose.FC.LYZ.S ([2]; dose 0.40 uM, FC relative to plate median): −0.206 log2 fold change | Dose.FC.LYZ.S ([2]; dose 2.00 uM, FC relative to plate median): −0.301 log2 fold change | Dose.FC.LYZ.S ([2]; dose 10.00 uM, FC relative to plate median): −0.361 log2 fold change | Dose.FC.CTG (ENR+CD organoids; [7]): −0.075 log2 fold change | Z.CTG (ENR+CD organoids; [8]): −0.180 | Dose.FC.CTG (ENR+CD organoids; [9]): −0.083 log2 fold change | Z.CTG (ENR+CD organoids; [10]): −0.198 | Dose.FC.CTG (ENR+CD organoids; [11]): −0.915 log2 fold change | Z.CTG (ENR+CD organoids; [12]): −2.186 | Dose.FC.CTG (ENR+CD organoids; [13]): −1.009 log2 fold change | Z.CTG (ENR+CD organoids; [14]): −2.411
